Test results published in PMC11054132, “Neuroprotective Effects of Chemical Constituents of Leaves of Euonymus hamiltonianus Wall” (Plants, 2024).
Entries after “also recorded” stand apart in the source; their conditions may differ. Where two headings read alike, the source gives them in different places.

Assays:
[1] = tested on: NO production in LPS-activated BV-2 microglial cells; assay: NO production (Griess reaction) in LPS-stimulated BV-2 microglial cells; assay type: cell-based, mouse; conditions: for IC50: Mus musculus, BV-2, BV-2 microglial cells, pretreated 1 h, 100 ng/mL LPS (footnote 24 h; text 12 h), means ± SDs (n = 3)
Protocol: The anti-inflammatory effects of the fourteen compounds (1–14) isolated from E. hamiltonianus were evaluated in activated BV-2 microglial cells by the production of NO and proinflammatory cytokines. […] […] The compounds were continuously assessed to determine whether they suppressed the expression of iNOS and COX-2 in LPS-stimulated BV-2 microglial cells. The cells were stimulated with LPS in the presence of these compounds at various concentrations, and the expression levels of iNOS and COX-2 were determined by Western blotting. […] Thus, compound 3 may be considered a potential anti-inflammatory agent.
For the Aβ-Hela-APPsw model, Hela cells were stably transfected with an APP carrying the Swedish mutation (APPsw) using BioT (Bioland Scientific LLC, Paramount, CA, USA) according to the manufacturer’s instructions, which was provided by Prof. Tae-Wan Kim (Department of Pathology, Columbia University of Medical Center, New York, NY 10032, USA). APPsw-transfected HeLa cells were grown in DMEM supplemented with 10% fetal bovine serum (FBS; Thermo Fisher Scientific, Lafayette, CA, USA), 1% penicillin/streptomycin (Thermo Fisher Scientific, Lafayette, CA, USA), 260 μg/mL Zeocin, and 400 μg/mL G418. The cells were maintained at 37 °C under a humidified atmosphere of 5% CO2. The stock sample solution was dissolved in DMSO and kept at −20 °C and diluted to the final concentration in fresh medium before each experiment. […] The EZ-Cytox kit (DAEILLAB, Cheongwon, Republic of Korea) was applied to detect the cell viability, following the manufacturer’s instructions, and measurements were taken by a microplate reader (BIO-TEK® Dower-Wave; BioTek, Winooski, VT, USA) under absorbance at 450 nm. The results were presented as the percentage of MTT reduction, compared with the control group as 100%. For the LPS-induced microglia model, the BV-2 mouse microglia cell line was provided by Prof. Lee Sung Jung’s research team in the College of Medicine, Seoul National University, and was cultured in DMEM-F12 with 5% FBS and 1% penicillin/streptomycin at 37 °C under a humidified atmosphere containing 5% CO2. And the cell viability assay was performed using the Aβ-Hela-APPsw model.
[…] The media were collected and centrifuged at 13,000 rpm for the removal of dead cells. The supernatants were collected and mixed with an equal volume (50 μL) of Griess reagents (1% sulfanilamide and N-(1-naphthyl) ethylenediamine dihydrochloride in 2.5% H3PO4) for 5 min at room temperature, and the Nitric Oxide concentration was measured at 540 nm using a microplate reader and compared with the sodium nitrite standard curve.

[2] = Cytotoxicity (MTT assay) in BV-2 microglial cells; assay type: cell-based; conditions: mouse
[3] = Storage stability of isolated compound by LC-MS; assay type: physicochemical; conditions: stored 27 days (compound 2) or a significant length of time (compound 1), dried powder and DMSO solution
Protocol: In this study, qualitative profile analysis was performed on the 30% EtOH crude extract of the leaves of E. hamiltonianus using HPLC. The isolated phytochemicals, 1–14, were used as standards and compared to the crude extract profile represented by a high-performance liquid chromatogram (Figure 3). […] With comparative UV area normalization, compound 2 was confirmed as a pure compound initially when isolated (Figure S3.8). […] For reconfirmation, LC-MS analyses of both the dried powdered form of the compound when isolated and the compound in DMSO solution were performed (Figure S3.9), both sets of results showing signs of degradation. Compound 2 was degraded into three separate peaks, and the original compound 2 indicated by m/z 759.2 was verified by LC-MS analysis, and the peaks of 2a and 2b were indicated by m/z 465.1 and 627, respectively. […] Due to the close resemblance of compound 2 to compound 1, it was investigated in the same manner after a significant length of time.

[4] = tested on: Aβ42 production in APPsw-transfected HeLa cells; assay: Aβ42 production (ELISA kit) in APPsw-transfected HeLa cells; assay type: cell-based; conditions: for IC50: 8 h, APPsw-transfected HeLa cells, means ± SDs (n = 3)
Protocol: APPsw-transfected HeLa cells were cultured with the isolated compounds or DMSO in Dulbecco’s modified Eagle medium (DMEM, Welgene, Gyeongsan-si, Republic of Korea) for 8 h, and then the cell culture supernatants were collected for the following analyses. For the detection of Aβ secretion, kits for Aβ42 (KHB3442) and Aβ40 (KHB3482) were purchased from the Invitrogen Company and used according to the supplier’s instructions.
For the Aβ-Hela-APPsw model, Hela cells were stably transfected with an APP carrying the Swedish mutation (APPsw) using BioT (Bioland Scientific LLC, Paramount, CA, USA) according to the manufacturer’s instructions, which was provided by Prof. Tae-Wan Kim (Department of Pathology, Columbia University of Medical Center, New York, NY 10032, USA). APPsw-transfected HeLa cells were grown in DMEM supplemented with 10% fetal bovine serum (FBS; Thermo Fisher Scientific, Lafayette, CA, USA), 1% penicillin/streptomycin (Thermo Fisher Scientific, Lafayette, CA, USA), 260 μg/mL Zeocin, and 400 μg/mL G418. The cells were maintained at 37 °C under a humidified atmosphere of 5% CO2. The stock sample solution was dissolved in DMSO and kept at −20 °C and diluted to the final concentration in fresh medium before each experiment. For the cell viability assay, Hela cells were cultured in 96-well plates for 24 h and then various concentrations of comp 27 (0–10 μM) were treated for 12 h. The EZ-Cytox kit (DAEILLAB, Cheongwon, Republic of Korea) was applied to detect the cell viability, following the manufacturer’s instructions, and measurements were taken by a microplate reader (BIO-TEK® Dower-Wave; BioTek, Winooski, VT, USA) under absorbance at 450 nm. The results were presented as the percentage of MTT reduction, compared with the control group as 100%. For the LPS-induced microglia model, the BV-2 mouse microglia cell line was provided by Prof. Lee Sung Jung’s research team in the College of Medicine, Seoul National University, and was cultured in DMEM-F12 with 5% FBS and 1% penicillin/streptomycin at 37 °C under a humidified atmosphere containing 5% CO2. And the cell viability assay was performed using the Aβ-Hela-APPsw model.

iNOS = assay: Western blot of LPS-induced iNOS expression in BV-2 microglial cells; assay type: cell-based, mouse; conditions: LPS-stimulated BV-2 microglial cells, various concentrations (1.0, 2.0, 4.0 µM)
Protocol: The anti-inflammatory effects of the fourteen compounds (1–14) isolated from E. hamiltonianus were evaluated in activated BV-2 microglial cells by the production of NO and proinflammatory cytokines. BV-2 microglial cells were stimulated with 0.1 µg/mL LPS for 12 h in the presence of the compounds at various concentrations, and the levels of NO in the culture supernatants were measured using Griess reactions. […] The compounds were continuously assessed to determine whether they suppressed the expression of iNOS and COX-2 in LPS-stimulated BV-2 microglial cells. The cells were stimulated with LPS in the presence of these compounds at various concentrations, and the expression levels of iNOS and COX-2 were determined by Western blotting. […] Thus, compound 3 may be considered a potential anti-inflammatory agent.
The total protein samples (10 μg) were loaded in sodium dodecyl sulfate polyacrylamide gel electrophoresis (SDS–PAGE) gels with 10% acrylamide/bis and transferred to polyvinylidene difluoride membranes (Millipore, Burlington, MA, USA). Then, the membranes were blocked with 5% silky milk dissolved in TBST (Tris Buffered saline Tween) for 1 h under room temperature and incubated overnight at 4 °C with specific primary antibodies (1:1000). After being washed with TBST, the membranes were incubated with secondary HRP-conjugated IgG (1:2000) at room temperature for 1 h and visualized using enhanced chemiluminescence (ECL) reagents (Thermo Fisher Scientific, Lafayette, CA, USA). Densitometry analysis of the bands was performed with the fusion solo system (Vilber, Paris, France). The band densities were determined as the intensities of protein by TotalLab TL120 software v2009 (TotalLab, Newcastle, UK).

[5] = BV-2 microglial cells, MTT assay, read-out: IC50 Value (µM) Cytotoxicity

Structure (SMILES) | IC50 [1] [µM] | IC50 ([4]; Homo sapiens, HeLa) [µM] | IC50 at 12 h [2, 5] [µM] | other results
O=c1c(O[C@@H]2O[C@H](CO)[C@@H](O)[C@H](O)[C@H]2O)c(-c2ccc(O)c(O[C@@H]3O[C@H](CO)[C@@H](O)[C@H](O)[C@H]3O)c2)oc2cc(O)cc(O)c12 [Compound 8, quercetin-3,3′-di-O-β-D-glucopyranoside] | > 100 | – | > 100 | –
COc1cc([C@H]2OC[C@H]3[C@@H]2CO[C@@H]3c2cc(OC)c(O[C@@H]3O[C@H](CO)[C@@H](O)[C@H](O)[C@H]3O)c(OC)c2)cc(OC)c1O[C@@H]1O[C@H](CO)[C@@H](O)[C@H](O)[C@H]1O [Compound 9, liriodendrin] | – | – | – | IC50 at 12 h [2]: > 100 µM
CCCCOC(=O)C(CC(=O)O)OC(=O)C=Cc1ccc(O)cc1 (stereo not shown) [Compound 10, p-coumaroylmalic acid 1-butyl ester] | > 100 | – | > 100 | –
O=c1occc2c(O)cc(O)cc12 [Compound 11, 5,7-dihydroxyisocoumarin] | > 100 | – | > 100 | –
O=C(O)/C=C/c1ccc(O)c(O[C@@H]2O[C@H](CO)[C@@H](O)[C@H](O)[C@H]2O)c1 [Compound 12, caffeic acid trans-3-O-β-D-glucopyranoside] | > 100 | > 100 | > 100 | –
COC(=O)/C=C/c1ccc(O)c(O[C@@H]2O[C@H](CO)[C@@H](O)[C@H](O)[C@H]2O)c1 [Compound 13, methyl trans-3-O-(β-D-glucopyranosyl) caffeate] | > 100 | 53.1 to 65.4 | > 100 | IC50 [4]: 65.4 ± 6.71 µM; Inhibitory effect on Aβ production (in words) ([4]; Hela-swAPP cells): reduced Aβ levels
COc1cc2c(OC)c3c(c(-c4ccc5c(c4)OCO5)c2cc1OC)C(=O)OC3 [Justicidine A, reference compound] | – | – | – | IC50 [4]: 1 ± 0.043 µM

Further lines, with some results ahead:

IC50 [1] [µM] | IC50 ([4]; Homo sapiens, HeLa) [µM] | Structure (SMILES) | IC50 at 12 h [2, 5] [µM] | other results
> 100 | – | COc1cc(-c2oc3cc(O[C@@H]4O[C@H](CO)[C@@H](O)[C@H](O)[C@H]4O)cc(O)c3c(=O)c2O[C@@H]2O[C@H](CO)[C@@H](O)[C@H](O)[C@H]2O[C@@H]2OC[C@@H](O)[C@H](O)[C@H]2O)ccc1O [Compound 1, isorhamnet-in-3-O-(2″-O-(β-D-xylopyranosyl)-β-D-glucopyranoside)-7-O-β-D-glucopyranoside] | > 100 | Degradation on storage (in words) [3]: did not show any sign of degradation
> 100 | > 100 | O=c1c(O[C@@H]2O[C@H](CO)[C@@H](O)[C@H](O)[C@H]2O[C@@H]2OC[C@@H](O)[C@H](O)[C@H]2O)c(-c2ccc(O)c(O)c2)oc2cc(O[C@@H]3O[C@H](CO)[C@@H](O)[C@H](O)[C@H]3O)cc(O)c12 [Compound 2, quercetin-3-O-(2″-O-(β-D-xylopyranosyl)-β-D-glucopyranoside)-7-O-β-D-glucopyranoside] | > 100 | Degradation on storage (in words) [3]: showed signs of degradation
> 100 | – | COc1cc(-c2oc3cc(O[C@@H]4O[C@H](CO)[C@@H](O)[C@H](O)[C@H]4O)cc(O)c3c(=O)c2O[C@@H]2O[C@H](CO)[C@@H](O)[C@H](O)[C@H]2O)ccc1O [Compound 5, isorhamnetin-3,7-di-O-β-D-glucopyranoside] | > 100 | –
> 100 | > 100 | O=c1c(O[C@@H]2O[C@H](CO)[C@@H](O)[C@H](O)[C@H]2O[C@@H]2OC[C@@H](O)[C@H](O)[C@H]2O)c(-c2ccc(O)c(O)c2)oc2cc(O)cc(O)c12 [Compound 6, quercetin-3-O-sambubioside] | > 100 | –
> 100 | – | O=c1c(O[C@@H]2O[C@H](CO)[C@@H](O)[C@H](O)[C@H]2O)c(-c2ccc(O)c(O)c2)oc2cc(O)cc(O)c12 [Compound 7, isoquercetin] | > 100 | –
17.4 ± 2.77 | 53.1 to 65.4 | OC[C@H]1O[C@@H](OC[C@H]2O[C@@H](OCc3ccccc3)[C@H](O)[C@@H](O)[C@@H]2O)[C@H](O)[C@@H](O)[C@@H]1O [Compound 14, benzyl gentiobioside] | > 100 | Inhibitory effect on NO production (in words) ([1]; LPS-stimulated BV-2 microglial cells): effectively downregulated; also recorded: good inhibitory effects; LPS-induced iNOS protein expression (in words) (iNOS): suppressed; also recorded: effectively downregulated
1.24 ± 0.104 | – | C[C@@H]1C[C@H]2[C@@H]3CCC4=CC(=O)C=C[C@]4(C)[C@@]3(F)[C@@H](O)C[C@]2(C)[C@@]1(O)C(=O)CO [Dexamethasone, reference compound] | > 100 | –
